Data on 16 compounds can be found in US20230092890A1, “1, 3, 4-Oxadiazole derivative compounds as histone deacetylase 6 inhibitor, and the pharmaceutical composition comprising the same” (Chong Kun Dang Pharmaceutical Corp., priority 2019, published 2023).

One assay concerns the target T1, HDAC1 (Homo sapiens, UniProt Q13547).
T1 construct: purchased Enzolifesciences BML-AK511
Nature of the assay: HDAC enzyme activity inhibition (in vitro), HDAC1 Fluorimetric Drug Discovery Assay Kit. The format is biochemical. Particulars: samples at 100, 1000 and 10000 nM; 37° C. 60 minutes; fluorescence Ex 390, Em 460; read-out: HDAC1 IC50. Summed up: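 Compounds at 100, 1000, 10000 nM (HDAC1) or 0.1, 1, 10, 100, 1000 nM (HDAC6); 37° C, 60 min; developer, 37° C, 30 min; fluorescence Ex 390/Em 460.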

A further assay concerns the target T2, HDAC6 human recombinant (Homo sapiens, UniProt Q9UBN7).
T2 construct: purchased Calbiochem 382180
T2 sequence (Q9UBN7 1-1215): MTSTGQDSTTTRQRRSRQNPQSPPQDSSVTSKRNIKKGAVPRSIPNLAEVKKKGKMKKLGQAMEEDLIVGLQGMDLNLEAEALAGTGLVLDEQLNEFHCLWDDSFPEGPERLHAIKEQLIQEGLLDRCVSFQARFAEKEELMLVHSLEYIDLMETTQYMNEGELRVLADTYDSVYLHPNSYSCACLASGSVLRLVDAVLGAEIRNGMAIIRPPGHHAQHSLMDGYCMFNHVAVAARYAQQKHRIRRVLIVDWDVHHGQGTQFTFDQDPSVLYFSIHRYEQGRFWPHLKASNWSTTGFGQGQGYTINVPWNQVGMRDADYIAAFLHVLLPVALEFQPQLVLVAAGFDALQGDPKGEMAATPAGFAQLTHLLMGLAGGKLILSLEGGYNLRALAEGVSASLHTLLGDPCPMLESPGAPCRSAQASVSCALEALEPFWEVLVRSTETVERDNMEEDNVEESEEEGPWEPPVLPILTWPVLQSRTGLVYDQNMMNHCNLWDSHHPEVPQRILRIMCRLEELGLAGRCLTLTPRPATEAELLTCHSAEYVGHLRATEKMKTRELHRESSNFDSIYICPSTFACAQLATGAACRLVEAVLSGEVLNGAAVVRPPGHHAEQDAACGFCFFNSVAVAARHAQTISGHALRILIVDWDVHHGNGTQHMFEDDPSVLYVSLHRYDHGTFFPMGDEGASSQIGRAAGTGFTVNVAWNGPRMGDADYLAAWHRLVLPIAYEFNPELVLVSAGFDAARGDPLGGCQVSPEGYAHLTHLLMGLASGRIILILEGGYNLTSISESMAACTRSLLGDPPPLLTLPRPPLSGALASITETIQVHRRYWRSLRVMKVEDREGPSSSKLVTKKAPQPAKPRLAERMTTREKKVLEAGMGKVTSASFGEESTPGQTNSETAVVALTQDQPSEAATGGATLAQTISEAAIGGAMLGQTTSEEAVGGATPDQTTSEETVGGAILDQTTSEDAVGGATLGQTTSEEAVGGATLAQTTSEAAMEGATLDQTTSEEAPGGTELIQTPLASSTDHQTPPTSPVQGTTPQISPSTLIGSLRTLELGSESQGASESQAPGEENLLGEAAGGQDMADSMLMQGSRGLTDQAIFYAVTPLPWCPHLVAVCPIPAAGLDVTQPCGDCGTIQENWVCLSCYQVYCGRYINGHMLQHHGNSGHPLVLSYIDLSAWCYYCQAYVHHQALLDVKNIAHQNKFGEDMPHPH
Nature of the assay: HDAC enzyme activity inhibition (in vitro), HDAC6 assay. The format is biochemical. Particulars: samples at 0.1, 1, 10, 100 and 1000 nM; 37° C. 60 minutes; fluorescence Ex 390, Em 460; read-out: HDAC6 IC50. In short, it runs like this: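 HDAC6 human recombinant enzyme with fluorimetric substrate; […]. Reaction 60 min at 37° C, then developer 30 min at 37° C; fluorescence read at Ex 390/Em 460.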

Molecules are shown by their SMILES. pIC50: −log10 of the molar value. Where only a bound is given, the exact number is not on record here.

T1 sequence (Q13547 whole entry): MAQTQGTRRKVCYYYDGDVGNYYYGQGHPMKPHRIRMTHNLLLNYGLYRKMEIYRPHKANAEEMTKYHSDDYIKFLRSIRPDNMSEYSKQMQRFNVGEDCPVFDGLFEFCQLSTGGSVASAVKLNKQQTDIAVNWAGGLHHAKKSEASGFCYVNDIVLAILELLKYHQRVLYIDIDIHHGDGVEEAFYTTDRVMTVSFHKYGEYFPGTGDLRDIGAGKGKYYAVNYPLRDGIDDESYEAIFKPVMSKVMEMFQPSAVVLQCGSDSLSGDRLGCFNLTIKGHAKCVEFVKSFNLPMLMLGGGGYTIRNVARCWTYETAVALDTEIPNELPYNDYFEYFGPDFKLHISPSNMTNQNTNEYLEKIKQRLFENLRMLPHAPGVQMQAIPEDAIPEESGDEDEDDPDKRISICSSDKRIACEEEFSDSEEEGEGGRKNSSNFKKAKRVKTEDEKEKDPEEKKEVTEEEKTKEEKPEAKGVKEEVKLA

Turning to `Cn1c(=O)n(Cc2ccc(-c3nnc(C(F)F)o3)cn2)c2ccc(-c3cn[nH]c3)cc21` [Compound 247, 1-((5-(5-(difluoromethyl)-1,3,4-oxadiazole-2-yl)pyridine-2-yl)methyl)-3-methyl-5-(1H-pyrazole-4-yl)-1,3-dihydro-2H-benzo[d]imidazole-2-one], the pIC50 (as a rule, the IC50 on a negative log10 scale, so that one unit is a factor of ten) was below 5.00 at HDAC1 and 8.05 at HDAC6 human recombinant.
In the same order, the values of `CN1CCC(n2c(=O)n(Cc3ccc(-c4nnc(C(F)F)o4)cn3)c3cc(F)c(-c4cn[nH]c4)cc32)CC1` [Compound 248, 1-((5-(5-(difluoromethyl)-1,3,4-oxadiazole-2-yl)pyridine-2-yl)methyl)-6-fluoro-3-(1-methylpiperidine-4-yl)-5-(1H-pyrazole-4-yl)-1,3-dihydro-2H-benzo[d]imidazole-2-one] are below 5.00 and 8.22.
As for `CN1CCC(n2c(=O)n(Cc3ccc(-c4nnc(C(F)F)o4)cn3)c3cc(F)c(-c4ccnn4C)cc32)CC1` [Compound 249, 1-((5-(5-(difluoromethyl)-1,3,4-oxadiazole-2-yl)pyridine-2-yl)methyl)-6-fluoro-5-(1-methyl-1H-pyrazole-5-yl)-3-(1-methylpiperidine-4-yl)-1,3-dihydro-2H-benzo[d]imidazole-2-one], the figures for the pIC50 on HDAC1 and on HDAC6 human recombinant were below 5.00 and 7.74, respectively.
On the same counts, the results for `CN1CCC(n2c(=O)n(Cc3ccc(-c4nnc(C(F)F)o4)cn3)c3cc(F)c(-c4ccc5c(ccn5C)c4)cc32)CC1` [Compound 250, 1-((5-(5-(difluoromethyl)-1,3,4-oxadiazole-2-yl)pyridine-2-yl)methyl)-6-fluoro-5-(1-methyl-1H-indole-5-yl)-3-(1-methylpiperidine-4-yl)-1,3-dihydro-2H-benzo[d]imidazole-2-one] are below 5.00 and 7.74.
For the compound `CN1CCC(n2c(=O)n(Cc3ccc(-c4nnc(C(F)F)o4)cn3)c3cc(F)c(-c4ccc5c(ccn5C(=O)OC(C)(C)C)c4)cc32)CC1` [Compound 251, tert-butyl 5-(1-((5-(5-(difluoromethyl)-1,3,4-oxadiazole-2-yl)pyridine-2-yl)methyl)-6-fluoro-3-(1-methylpiperidine-4-yl)-2-oxo-2,3-dihydro-1H-benzo[d]imidazole-5-yl)-1H-indole-1-carboxylate], the pIC50 on HDAC1 was below 5.00; on HDAC6 human recombinant, 6.43.
Turning to `Cc1cc2cc(-c3cc4c(cc3F)n(Cc3ccc(-c5nnc(C(F)F)o5)cn3)c(=O)n4C3CCN(C)CC3)ccc2n1C(=O)OC(C)(C)C` [Compound 252, tert-butyl 5-(1-((5-(5-(difluoromethyl)-1,3,4-oxadiazole-2-yl)pyridine-2-yl)methyl)-6-fluoro-3-(1-methylpiperidine-4-yl)-2-oxo-2,3-dihydro-1H-benzo[d]imidazole-5-yl)-2-methyl-1H-indole-1-carboxylate], the pIC50 on HDAC1 was below 5.00; at HDAC6 human recombinant, 6.68.
Take `CN1CCC(n2c(=O)n(Cc3ccc(-c4nnc(C(F)F)o4)cn3)c3cc(F)c(-c4cc5ccccc5n4C(=O)OC(C)(C)C)cc32)CC1` [Compound 253, tert-butyl 2-(1-((5-(5-(difluoromethyl)-1,3,4-oxadiazole-2-yl)pyridine-2-yl)methyl)-6-fluoro-3-(1-methylpiperidine-4-yl)-2-oxo-2,3-dihydro-1H-benzo[d]imidazole-5-yl)-1H-indole-1-carboxylate]: the pIC50 at HDAC1 is below 5.00; on HDAC6 human recombinant, 6.57.
For the compound `CN1CCC(n2c(=O)n(Cc3ccc(-c4nnc(C(F)F)o4)cn3)c3cc(F)c(-c4cn(C(=O)OC(C)(C)C)c5ccc(Cl)cc45)cc32)CC1` [Compound 254], the values for the negative logarithm of the IC50 (pIC50) on HDAC1 and at HDAC6 human recombinant were below 5.00 and 6.33, respectively.
In the case of `CN1CCC(n2c(=O)n(Cc3ccc(-c4nnc(C(F)F)o4)cn3)c3cc(F)c(-c4ccc5c(cnn5C(=O)OC(C)(C)C)c4)cc32)CC1` [Compound 255, tert-butyl 5-(1-((5-(5-(difluoromethyl)-1,3,4-oxadiazole-2-yl)pyridine-2-yl)methyl)-6-fluoro-3-(1-methylpiperidine-4-yl)-2-oxo-2,3-dihydro-1H-benzo[d]imidazole-5-yl)-1H-indazole-1-carboxylate], the results for the pIC50 at HDAC1 and at HDAC6 human recombinant were below 5.00 and 7.32, respectively.
In the same order, the values of `CN1CCC(n2c(=O)n(Cc3ccc(-c4nnc(C(F)F)o4)cn3)c3cc(F)c(-c4ccc5[nH]ncc5c4)cc32)CC1` [Compound 256, 1-((5-(5-(difluoromethyl)-1,3,4-oxadiazole-2-yl)pyridine-2-yl)methyl)-6-fluoro-5-(1H-indazole-5-yl)-3-(1-methylpiperidine-4-yl)-1,3-dihydro-2H-benzo[d]imidazole-2-one] are below 5.00 and 8.10.
In the same order, the values of `CN1CC(n2c(=O)n(Cc3ccc(-c4nnc(C(F)F)o4)cn3)c3cc(F)c(-c4cccc5[nH]ccc45)cc32)C1` [Compound 257, 1-((5-(5-(difluoromethyl)-1,3,4-oxadiazole-2-yl)pyridine-2-yl)methyl)-6-fluoro-5-(1H-indole-4-yl)-3-(1-methylazetidine-3-yl)-1,3-dihydro-2H-benzo[d]imidazole-2-one] are below 5.00 and 7.92.
In the same order, the values of `CN1CC(n2c(=O)n(Cc3ccc(-c4nnc(C(F)F)o4)cn3)c3cc(F)c(-c4cccnc4)cc32)C1` [Compound 258, 1-((5-(5-(difluoromethyl)-1,3,4-oxadiazole-2-yl)pyridine-2-yl)methyl)-6-fluoro-3-(1-methylazetidine-3-yl)-5-(pyridine-3-yl)-1,3-dihydro-2H-benzo[d]imidazole-2-one] are below 5.00 and 7.89.
Take `CN1CC(n2c(=O)n(Cc3ccc(-c4nnc(C(F)F)o4)cn3)c3cc(F)c(-c4ccncc4)cc32)C1` [Compound 259, 1-((5-(5-(difluoromethyl)-1,3,4-oxadiazole-2-yl)pyridine-2-yl)methyl)-6-fluoro-3-(1-methylazetidine-3-yl)-5-(pyridine-4-yl)-1,3-dihydro-2H-benzo[d]imidazole-2-one]: the results for the pIC50 at HDAC1 and on HDAC6 human recombinant were below 5.00 and 7.85, respectively.
`CC(C)N1CCN(c2cc3c(cc2F)n(Cc2ccc(-c4nnc(C(F)F)o4)cn2)c(=O)n3C)CC1` [Compound 261, 1-((5-(5-(difluoromethyl)-1,3,4-oxadiazole-2-yl)pyridine-2-yl)methyl)-6-fluoro-5-(4-isopropylpiperazine-1-yl)-3-methyl-1,3-dihydro-2H-benzo[d]imidazole-2-one]: the pIC50 at HDAC1 is below 5.00; at HDAC6 human recombinant it was 7.24.
In the case of `Cn1c(=O)n(Cc2ccc(-c3nnc(C(F)F)o3)cn2)c2cc(F)c(N3CCN(CC(F)(F)C(F)F)CC3)cc21` [Compound 262, 1-((5-(5-(difluoromethyl)-1,3,4-oxadiazole-2-yl)pyridine-2-yl)methyl)-6-fluoro-3-methy 1-5-(4-(2,2,3,3-tetrafluoropropyl)piperazine-1-yl)-1,3-dihydro-2H-benzo[d]imidazole-2-one], the figures for the pIC50 at HDAC1 and on HDAC6 human recombinant were below 5.00 and 6.97, respectively.
In the same order, the values of `Cn1c(=O)n(Cc2ccc(-c3nnc(C(F)F)o3)cn2)c2cc(F)c(N3CCN(CC(F)(F)F)CC3)cc21` [Compound 263, 1-((5-(5-(difluoromethyl)-1,3,4-oxadiazole-2-yl)pyridine-2-yl)methyl)-6-fluoro-3-methy 1-5-(4-(2,2,2-trifluoroethyl)piperazine-1-yl)-1,3-dihydro-2H-benzo[d]imidazole-2-one] are below 5.00 and 7.23.
